Results as given in patent US8158821B2, “Crystal of 5-aminolevulinic acid phosphate and process for producing the same” (priority 2006, dated 2012).

Columns and labels:
[1] = Thermal stability test (increase in PDPA content on heating, by liquid chromatography); format: physicochemical; conditions: for Increase in PDPA concentration in solid: heating time 96 hr, phosphate
Protocol: With regard to 5-aminolevulinic acid phosphate, 1 g of each of the powder obtained by a conventional method (the method described in Example 1 of WO2005/100300 pamphlet) and the crystal obtained in Example 1 was weighed out and allowed to stand under each condition shown in Table 3. The amount of 2,5-pyrazinedipropionic acid (PDPA), which is an impurity generated by heating and a compound formed by dimerization of 5-aminolevulinic acid molecules, was measured by liquid chromatography. An increase in the content of PDPA in 5-aminolevulinic acid phosphate was calculated and thermal stability as a substance was evaluated.
Analytical conditions for liquid chromatography: separation column: μBondasphere C18 5μ 100 Å manufactured by Waters, eluent: a mixture of 2% aqueous acetic acid solution and methanol in a volume ratio of 90/10, flow rate: 1.0 mL/min, injection amount of sample: 50 μl, column temperature: 40° C., detector: UV detector (276 nm).

[2] = Test on moisture absorption resistance (change in mass on standing at 25° C. and 90% RH); format: physicochemical; conditions: for ratio of change in mass: 25° C., 90% RH, 1 g solid, phosphate
Protocol: With regard to 5-aminolevulinic acid phosphate, moisture absorption resistance was evaluated by weighing out 1 g of each of the powder obtained by a conventional method (the method described in Example 1 of WO2005/100300 pamphlet) and the crystal obtained in Example 1, allowing it to stand under conditions of 25° C. and 90% RH, subsequently measuring mass after the passage of each period of time, and calculating a ratio of change in mass.

Row | Increase in PDPA concentration in solid ([1]; heating temperature 30° C.) | Increase in PDPA concentration in solid ([1]; heating temperature 60° C.) | ratio of change in mass ([2]; time passed 1 hr) | ratio of change in mass ([2]; time passed 3 hr) | ratio of change in mass ([2]; time passed 5 hr) | ratio of change in mass ([2]; time passed 6 hr) | ratio of change in mass ([2]; time passed 7 hr) | ratio of change in mass ([2]; time passed 24 hr) | thermal stability (in words) ([1]; as compared with the conventional powder, Table 3) | Compound | moisture absorption resistance (in words) ([2]; as compared with the conventional powder, Table 2)
1 | +10 ppm | +302 ppm | +6% | +11% | +14% | +16% | +17% | +21% |  | NCC(=O)CCC(=O)O.O=P(O)(O)O [Powder, 5-aminolevulinic acid phosphate] | 
2 | +0 ppm | −0 ppm | +0.05% | +0.06% | +0.09% | +0.08% | +0.09% | +0.4% | excellent in thermal stability | NCC(=O)CCC(=O)O.O=P(O)(O)O [Crystal, 5-aminolevulinic acid phosphate] | excellent in moisture absorption resistance
